From US20090030055A1, “PKC activation as a means for enhancing s[sequence] secretion and improving cognition using bryostatin type compounds” (priority 2002, published 2009)
Entries after “also recorded” stand apart in the source; their conditions may differ.

What was measured:
PKC [1] = assay: PKC affinity of bryostatin 1 and bryologs; type: binding; settings: times more potent than bryostatin-1
Source text: Analogs of bryostatin, commonly referred to as bryologs, are one particular class of PKC activators that are suitable for use in the methods of the present invention. […] Structurally, they are all similar. While bryostatin-1 has two pyran rings and one 6-membered cyclic acetal, in most bryologs one of the pyrans of bryostatin-1 is replaced with a second 6-membered acetal ring. This modification […] the stability of bryologs, relative to bryostatin-1, for example, in both strong acid or base, but has little significance at physiological pH. Bryologs also have a lower molecular weight (ranging from about 600 to 755), as compared to bryostatin-1 (988), a property which facilitates transport across the blood-brain barrier.

PKC [2] = settings: cited from earlier work
[3] = system: sAPPα secretion, AD cell line AG06848; assay: sAPPα secretion immunoblot, AD fibroblasts; type: cell-based, human; settings: for secretion of sAPPα: AD cell line AG06848, three hours of treatment, relative to DMSO
Experimental: (§1) Cultured skin fibroblasts were obtained from the Coriell Cell Repositories and grown using the general guidelines established for their culture with slight modifications (Cristofalo & Carpentier, 1988; Hirashima et al., 1996). The culture medium in which cells were grown was Dulbecco's modified Eagle's medium (GIBCO) supplemented with 10% fetal calf serum (Biofluids, Inc.). Fibroblasts from control cell lines (AC), cases AG07141 and AG06241, and a familial AD (FAD) case (AG06848) were utilized.
(§2) Cells grown to confluence in 6 cm Petri dishes for 5-7 days. On the day of the experiment, medium was replaced with DMEM without serum and left undisturbed for 2 h. Upon completion of the 2 hour serum deprivation; treatment was achieved by direct application to the medium of Bryo, BL and DMSO at the appropriate concentrations. (0.1 and 0.01 nM for bryostatin; 0.1 nM, 0.1 μM, and 1 μM BL). DMSO was less than 1% in all cases. In most cases, medium was collected and processed after 3 hours of treatment for sAPP secretion. Other time points were also used to establish a time course of secretion.
sAPP—Determinations/Measurements of sAPPα
The concentration of secreted APP was measured using conventional immunoblotting techniques, with minor modifications the protocol. Precipitated protein extracts from each dish/treatment were loaded to freshly prepared 10% acrylamide Tris-HCl minigels and separated by SDPAGE. The volume of sample loaded was corrected for total cell protein per dish. Proteins were then electrophoretically transferred to PVDF membranes. Membranes were saturated with 5% non-fat dry milk to block non-specific binding. Blocked membranes were incubated overnight at 4° C. with the commercially available antibody 6E10 (1:500), which recognizes sAPP-alpha in the conditioned medium (SENETEK). After washing, the membranes were incubated at room temperature with horseradish peroxidase conjugated anti-mouse IgG secondary antibody (Jackson's Laboratories). The signal was then detected using enhanced chemiluminescence followed by exposure of Hyperfilm ECL (Amersham). The band intensities were quantified by densitometry using a BioRad GS-800 calibrated scanning densitometer and Multianalyst software (BioRad).

[4] = system: sAPPα secretion, control cell lines AG07141 and AG06241; assay: sAPPα secretion immunoblot, control fibroblasts; type: cell-based, human; settings: two control cell lines pooled, 0.1 nM, compared to DMSO alone
Experimental: as §1
as §2, with “In most cases, medium was collected and processed after 3 hours of treatment for sAPP secretion. Other time points were also used to establish a time course of secretion.” left out
The concentration of secreted APP was measured using conventional immunoblotting techniques, with minor modifications the protocol. […] The signal was then detected using enhanced chemiluminescence followed by exposure of Hyperfilm ECL (Amersham). The band intensities were quantified by densitometry using a BioRad GS-800 calibrated scanning densitometer and Multianalyst software (BioRad).

PKC-α = molecular target: T1, PKC-α (Homo sapiens, UniProt P17252); assay: Immunoblot assay for PKC translocation, α isoenzyme; type: cell-based
T1 construct: endogenous in cells; host or cells: human fibroblasts (AD patient and control lines)
Experimental: Immunoblot experiments were conducted using well-established procedures (Dunbar, 1994). Cells were grown to confluency (˜90%) in 6 cm Petri dishes. […] Fibroblasts were washed twice with ice-cold PBS, scraped in PBS, and collected by low-speed centrifugation. The pellets were re-suspended in the following homogenization buffer: 20 mM Tris-HCl, pH 7.5, 2 mM EDTA, 2 mM EGTA, 5 mM DTT, 0.32 M sucrose, and protease inhibitor cocktail (Sigma). […] The pellets were homogenized in the same buffer containing 1.0% Triton X-100, incubated in ice for 45 minutes, and centrifuged at ˜12,000 g for 20 minutes. The supernatant from this batch was used as the membranous fraction. After protein determination, 20 μg of protein were diluted in 2× electrophoresis sample buffer (Novex), boiled for 5 minutes, run on 10% acrylamide gel, and transferred electrophoretically to a PVDF membrane. The membrane was saturated with 5% milk blocker by incubating it at room temperature for an hour. The primary antibody for PKC isoform (Transduction Laboratories) was diluted (1:1000) in blocking solution and incubated with the membrane overnight at 4° C. […] The band intensities were quantified by densitometry using a BioRad GS-800 calibrated scanning densitometer and Multianalyst software (BioRad).

Wistar albino rats = assay: Morris Water Maze; type: in vivo; settings: for learning, escape latency from trial to trial: i.c.v. 1 μl/site of 2 μM, vs vehicle control
Source text: (See, for example, Hollister, L. E., 1990, Pharmacopsychiat., 23, (Suppl II) 33-36). The available animal models of memory loss and impaired learning involve measuring the ability of animals to remember a discrete event. These tests include the Morris Water Maze and the passive avoidance procedure. In the Morris Water Maze, animals are allowed to swim in a tank divided into four quadrants, only one of which has a safety platform beneath the water. The platform is removed and the animals are tested for how long they search the correct quadrant verse the incorrect quadrants. In the passive avoidance procedure the animal remembers the distinctive environment in which a mild electric shock is delivered and avoids it on a second occasion. A variant of the passive avoidance procedure makes use of a rodent's preference for dark enclosed environments over light open ones. Further discussion can be found in Crawley, J. N., 1981, Pharmacol. Biochem. Behav., 15, 695-699; Costall, B. et al., 1987, Neuropharmacol., 26, 195-200; Costall, B. et at, 1989, Pharmacol. Biochem. Behav., 32, 777-785; Barnes, J. M. et al., 1989, Br. J. Pharmacol., 98 (Suppl) 693P; Barnes, J. M. et al., 1990, Pharmacol. Biochem. Behav., 35, 955-962.
Wistar albino rats (n=20) weighing between 220-250 g were housed for one week with free access to food and water. Stainless steel cannulas were placed bilaterally in each rat, following previously described procedures (49). […] Subsequently, animals were assigned randomly to experimental and control groups. At least 24 h prior to treatment and training, all animals were pre-exposed to the MWM experimental situation by placing them in the water and allowed to swim for 120 s. The training followed standard procedures (49) and consisted of two trials per day for 4 consecutive days. […] The control group received the same volume of vehicle alone, on identical schedule. On the fifth day, the platform was removed and the retention test was conducted. Animals' movements and escape latencies were recorded with an automatic tracking system. […] Acquisition of memory was measured as time spent in the relevant quadrant (5th day). […] Bryostatin-1 is capable of being used at concentrations to improve cognition that are 300 to 300,000 times lower than the concentration used to treat tumors.

[5] = system: double transgenic mice carrying the V7171 mutation and a Presenilin-1 (PS1) mutation; assay: Double transgenic mice (V7171 and Presenilin-1 mutation) treated with Bryostatin-1; type: in vivo; settings: 40 μg/k.g. i.p. three times a week
Experimental: A second transgenic study using similar procedures/testing and protocol was performed using double transgenic mice carrying the V7171 mutation and a Presenilin-1 (PS1) mutation, which causes accelerated amyloid formation, with the following major differences. Approximately 40 mice including both treated and controls were utilized. Treatment began at approximately 3 weeks of age and consisted of treatments with 40 μg/k.g. i.p. three times a week using Bryostatin-1. Controls were given vehicle alone. The treatment continued for approximately seven months before the morbidity rate of the non-treated animals necessitated termination of the experiment (see FIG. 10).

[6] = humans; cited from earlier work
[7] = approximately seven months, vs vehicle

With `CCCCCCCC(=O)O[C@H]1/C(=C/C(=O)OC)C[C@H]2C[C@H](CO)OC(=O)C[C@H](O)C[C@@H]3CCC[C@H](C[C@@H]4CCO[C@H](/C=C/C(C)(C)[C@]1(O)O2)O4)O3` [Analog 1] as the compound, how does the “potency relative to bryostatin-1” value (PKC [1]) read?
Its value is “about 100 times”.

And the “affinity for PKC, in words” value (PKC [2])?
The value was “highest affinity”.

And the Ki (PKC [2]; read-out: PKC Affin)?
Its Ki is 250 pM.

Which “sAPPα secretion, time-course” value ([3]; 0.01 nM compared with 0.1 nM, 2 and 3 h of incubation) does the source give for `CCC/C=C/C=C/C(=O)O[C@H]1/C(=C/C(=O)OC)C[C@H]2C[C@H]([C@@H](C)O)OC(=O)C[C@H](O)C[C@@H]3C[C@H](OC(C)=O)C(C)(C)[C@](O)(C[C@@H]4C/C(=C/C(=O)OC)C[C@H](/C=C/C(C)(C)[C@]1(O)O2)O4)O3` [Bryostatin 1] here?
Its value is “undistinguishable from the higher”.

And the “sAPPα secretion, time-course” value ([3]; 0.01 nM, only after 60 min of incubation)?
The value was “robust enhancement”.

And the “sAPPα secretion, time-course” value ([3]; 0.1 nM, 2 and 3 h compared with 60 min)?
The value was “did not substantially differ from 60 min incubation”.

And the “sAPPα secretion, time-course” value ([3]; 0.1 nM, 30 and 60 min)?
Its value is “Progressive and proportional increases”.

And the “sAPPα secretion, time-course” value ([3]; 0.1 nM, 15 min incubation)?
Its value is “marked increase”.

What about the “secretion of sAPPα” value ([3]; 0.1 nM, listed as Bryostatin) of the same compound?
Its value is “dramatically enhanced”.

What about the “secretion of sAPPα” value ([3]; 0.1 nM, listed as bryostatin) of the same compound?
Its value is “dramatic increase”.

What about the “secretion of sAPPα” value ([4]; listed as Bryostatin) of the same compound?
The value was “effective in enhancing secretion”.

What about the “secretion of sAPPα” value ([4]; listed as bryostatin) of the same compound?
The value was “enhanced the secretion of sAPPα”.

What about the “time of maximal PKC translocation (measure of activation)” value (PKC-α) of the same compound?
The value was 30 min.

What about the “time to improved cognition over control rats” value (Wistar albino rats; i.c.v.) of the same compound?
Its value is at most 2 days.

And the “learning, escape latency from trial to trial” value (Wistar albino rats; listed as bryostatin)?
Its value is “significantly faster”.

What about the “learning, escape latency from trial to trial” value (Wistar albino rats; listed as bryostatin 1) of the same compound?
Its value is “significantly lower”.

What about the “memory or retention, time spent in the relevant quadrant” value (Wistar albino rats; i.c.v., 5th day, platform removed, vs controls) of the same compound?
Its value is “significantly enhanced”.

What about the “percent plaque load, Thioflavin S staining” value ([5]; approximately seven months, vs controls) of the same compound?
The value was “decrease in percent plaque load”.

What about the “behavioural differences, water testing” value [5, 7] of the same compound?
The value was “not significant”.

What about the “total APP” value [5, 7] of the same compound?
Its value is “overall lower amount; also recorded: noticeable change”.

And the “life span, life percentage over time” value ([5]; vs controls, listed as Bryostatin)?
Its value is “increase in life span”.

And the “life span, life percentage over time” value ([5]; vs controls, listed as Bryostatin-1)?
Its value is “greater life percentage over time”.

And the main adverse reaction [6]?
The main adverse reaction was “myalgia”.

What about the “maximum dose, limited by myalgia” value [6] of the same compound?
Its value is 40 mg/m2.
